melting point: 118 °C
SMILES: COc1cc(-c2ncc([S+](C)[O-])cc2Cl)c(F)cc1Cl (stereo not shown) [No. 6, 3-Chloro-2-(4-chloro-2-fluoro-5-methoxyphenyl)-5-methylsulfinylpyridine]

— patent US6448205B1, “Substituted 2-phenylpyridine as herbicide” (BASF Aktiengesellschaft, priority 1996, dated 2002)
